Test results: patent US20240024350A1, “ANTI-CANCER COMPOSITION CONTAINING AURANOFIN AND MERCAPTO COMPOUND AND USE THEREOF” (SUN YAT-SEN UNIVERSITY, priority 2020, published 2024)
Like-named read-outs stand apart in the source and are kept apart here.

How the values were obtained:
[1] = tested on: HCT116 human colon cancer cells; test: MTT colorimetric proliferation / cell survival assay, HCT116; conditions: for Cell survival rate (%): compound alone, others not given; for Cell survival rate (%) / Cell survival rate after addition of 10 μM auranofin (%): with 30% FBS, 50 μM for TGTA, β-mercaptoethanol, mercaptoethylamine, DEDT; for Cell survival rate after addition of 10 μM auranofin (%): compound plus 10 μM auranofin, listed as Auranofin = auranofin alone
[2] = tested on: HepG-2 human liver cancer cells; test: MTT colorimetric proliferation / cell survival assay, HepG-2; type: cell-based
Method: (§1) A flask with the cancer cells required for the experiment, with an original culture solution discarded, was washed for three times with 2 mL of PBS, 1 mL of pancreatin was added for digestion for 30 s, and 2 mL of a medium was added to terminate the digestion. The cells were transferred to a centrifuge tube and centrifuged at 1000 rpm for 3 min, the supernatant was discarded, and 2 mL of a medium was added and blew 10 times to be mixed uniformly. 10 μL of a cell suspension was taken for cell counting, and spread on a 96-well plate, with 5000 cells per well and 3 duplications for each compound, and then the number of cells and cell wells was calculated. The amount of required cell suspension and the number of cells for medium dilution were calculated by cell counting. 100 μL of medium was plated with 5000 cells per well, pipetted and mixed uniformly, and the cells were inoculated using a volley, placed in an incubator for culture, and marked.
(§2) (2) The cells cultured in step (1) was taken, and discarded with the original medium. Auranofin mother liquor was diluted to a diluent with final concentrations of 0, 0.78125, 1.5625, 3.125, 6.25, 12.5, 25, 50 and 100 μM, and mixed uniformly. A volley (using 3 wells) was used to draw 100 μL of dilution per well, a 96-well plate was tilted, diluents with each concentration were added in sequence to the corresponding 3 marked wells carefully to prevent poking the cells, blown and sucked about 3 times to be mixed uniformly, marked, shaken for 3 times, and put into a CO2 incubator for culture. The above steps were repeated for each auranofin diluent.
(§3) After auranofin was added for culture for 1 hour, the mother liquor of the mercapto compound was diluted into […] and mixed uniformly. A volley (using 3 wells) was used to suck 20 μL of diluent per well, the 96-well plate was tilted, the diluents of different mercapto compounds were added in sequence to the corresponding 3 marked wells carefully to prevent poking the cells, blown and sucked about 3 times to be mixed uniformly, and put back to the incubator to continue culture.
(§4) After different mercapto compounds were added to cells for 24 h, 20 μL of MTT (with a concentration of 5 mg/mL in PBS) per well was added to the 96-well plate by a volley; and incubation was carried out at 37° C. for 4 h. At the end of incubation, the MTT mixture was sucked out, and DMSO was added at 130 μL/well using a volley.
(§5) According to the results of Table 1-2, the killing effect of auranofin in combination with various compounds (with 30% FBS) on HCT116 human colon cancer cells and the killing effect of the auranofin-TGTA (50 μM) in combination with other cancer cells (lung cancer, colon cancer, breast cancer, liver cancer, cervical cancer and gastric cancer cells) were further detected by using the same method as the above.

[3] = tested on: A549 human lung cancer cells; test: MTT colorimetric proliferation / cell survival assay, A549; type: cell-based
Method: as §1, §2, §3, §4, §5

[4] = tested on: MCF-7 human breast cell cancer cells; test: MTT colorimetric proliferation / cell survival assay, MCF-7; type: cell-based
Method: as §1, §2, §3, §4, §5

[5] = tested on: HCT-8 human colon adenocarcinoma cells; test: MTT colorimetric proliferation assay, HCT-8; type: cell-based; conditions: containing 40 mg/mL BSA; 200 μM of added compound
Method: as §1
(2) The cells cultured in step (1) was taken, and discarded with the original medium. Auranofin mother liquor was diluted to a diluent with final concentrations of 0, 0.78125, 1.5625, 3.125, 6.25, 12.5, 25, 50 and 100 μM, and mixed uniformly. […]

[6] = tested on: PC9 human lung cancer cells; test: MTT cell survival assay, PC9; type: cell-based; conditions: TGTA 50 μM
Method: as §1, with “marked. […]” for “marked.”
as §5

PCGR lung cancer cells = test: MTT cell survival assay, PCGR; type: cell-based; conditions: TGTA 50 μM
Method: as §1, with “marked. […]” for “marked.”
as §5

[7] = tested on: Hela human cervical cancer cells; test: MTT cell survival assay, Hela; type: cell-based; conditions: TGTA 50 μM
Method: as §1, with “marked. […]” for “marked.”
as §5

[8] = tested on: MGC803 human gastric cancer cells; test: MTT cell survival assay, MGC803; type: cell-based; conditions: TGTA 50 μM
Method: as §1, with “marked. […]” for “marked.”
as §5

TrxR = test: Intracellular TrxR activity in HepG2 cells (DTNB reduction); type: cell-based, human
Method: (§6) HepG2 cells were used as a test subject.
(§7) The cells were inoculated into a 6-well plate at 2×10^5 cell/well and incubated for 24 h.
After the incubation, the cell culture medium was replaced with 30% FBS to simulate the high concentration mercapto environment under the normal physiological condition, and used as a control (without adding any reagents). The experimental group was added with 0.5 μM of auranofin for incubation at 37° C. for 30 min, and then added with the mercapto compound (DEDT, β-mercaptoethanol or mercaptoethylamine) for incubation for 30 min (final concentration of DMSO in the system was ≤1%). The incubated cells were washed for 3 times with PBS, added with 100 μL of icy lysis buffer (containing 50 mM of phosphate buffer with pH 7.4, 1 mM EDTA, and 0.10% Triton-X 100), and then lysed on ice for 5 min to collect the cell lysate.
100 μL of buffer (containing 50 mM of potassium phosphate with pH 7.4, 1 mM EDTA, and 0.2 mM NADPH) was added to the collected cell lysate (10 μg protein), 5,5′-dithiobis (2-nitrobenzoic acid) (DTNB, with a final concentration of 3 mM) was added to initiate a reaction, and the activity of TrxR was obtained on the basis of the increased OD value in 10 minutes (OD detection wavelength was 410 nm). Auranofin alone was the positive control sample, and the blank group was the negative control.

HepG2 cells = test: Cell uptake of auranofin (gold by ICP-MS) in HepG2 cells; type: cell-based, human
Method: as §6, §7
After the incubation, the cell culture medium was replaced with 30% of FBS to stimulate a high-concentration mercapto environment under the normal physiological condition, and used as a control (without adding any reagents). The experimental group was added with 3 μM of auranofin for incubation at 37° C. for 10 min and then added with the mercapto compound (DEDT, β-mercaptoethanol or mercaptoethylamine) for incubation for 1 h (final concentration of DMSO in the system was 1%). After incubation, the cells were immediately washed for 3 times with PBS, 500 μL of ultrapure water was added to each well to break the cells, and after 15 min, the cell lysate was collected.
The collected cell lysate was dissolved by adding aqua regia and diluted with ultrapure water to a proper proportion. Inductively coupled plasma mass spectrometry (ICP-MS) was used for gold detection. The cell uptake rate of 3 μM […] without FBS was used as the control.
Wherein, the above uptake is the amount of gold (mg) in 1 g protein in the cell.

[9] = tested on: colon cancer cell HCT116 xenograft; test: Mouse tumor model, HCT116 xenograft; type: in vivo, BALB/Cann nu (Nude) mice; conditions: HCT116 xenograft in nude mice; intraperitoneal once a day; auranofin 3 mg/kg/day, mercapto compound (β-mercaptoethanol or TGTA) 40 mg/kg/day
Method: Establishment of mouse tumor model: 2 million colon cancer cell HCT116 cells suspended in PBS were injected subcutaneously into the dorsal side of 5-7 week-old female BALB/Cann nu (Nude) mice to establish a xenograft model.
When the tumor volume reached about 50 mm^3 (3-4 days after tumor inoculation), mice were randomly divided into a control group and a treatment group, the control group was treated with corn oil, the treatment group was intraperitoneally injected with auranofin (3 mg/kg mouse body weight/day) in combination with various mercapto compounds (β-mercaptoethanol or TGTA, 40 mg/kg mouse body weight/day) once a day. When the tumor volume grew to 1000 mm^3, the mice were anesthetized and then sacrificed by dislocation of the cervical spine.

[10] = tested on: acute lymphocytic leukemia cell P388; conditions: mice inoculated with P388; earlier studies; cited from earlier work
solid tumor models = conditions: several solid tumor models; intraperitoneal injection; follow-up studies; cited from earlier work

For `O[C@H](CS)[C@H](O)CS` (racemic) [Dithiothreitol (DTT), Dithiothreitol], the “Cell survival rate (%)” value [1] was 102 ± 4% and the “Cell survival rate after addition of 10 μM auranofin (%)” value (“Cell survival rate after addition … (%)” below) [1] was 88 ± 6%.
In the case of `CC(=O)OC[C@H]1O[C@@H]([S-])[C@H](OC(C)=O)[C@@H](OC(C)=O)[C@@H]1OC(C)=O.CCP(CC)CC.[Au+]` [Auranofin], the “Cell survival rate (%) HepG2” value ([2]; Liver cancer, TGTA 50 μM) is reported as 87 ± 1%, the IC50 ([2]; auranofin alone, without BSA/FBS, read-out: IC50 HepG2 Human liver cancer cells) is reported as 1.3 µM and the IC50 ([2]; containing 40 mg/mL BSA, 200 μM of added compound, read-out: IC50 HepG-2 Human liver cancer cells) is reported as 16.6 µM. For the same molecule, the IC50 ([2]; under the normal physiological condition, auranofin alone, read-out: IC50 value, proliferation of HepG-2 human liver cancer cells) was over 30 µM, the IC50 ([2]; with 10% FBS, mercapto compound added 1 h after auranofin, MTT after 24 h, read-out: IC50 HepG-2 Human liver cancer cells) was 3 µM and the “Cell survival rate (%) A549” value ([3]; Lung cancer, TGTA 50 μM) was 81 ± 7%. For the same molecule, the IC50 ([3]; auranofin alone, without BSA/FBS, read-out: IC50 A549 Human lung cancer cells) was 4.2 µM, the IC50 ([3]; containing 40 mg/mL BSA, 200 μM of added compound, read-out: IC50 A549 Human lung cancer cells) was 70.5 µM and the IC50 ([3]; under the normal physiological condition, auranofin alone, read-out: IC50 value, proliferation of A549 human lung cancer cells) was over 30 µM. For the same molecule, the IC50 ([3]; with 10% FBS, mercapto compound added 1 h after auranofin, MTT after 24 h, read-out: IC50 A549 Human lung cancer cells) was 12.9 µM, the IC50 ([4]; auranofin alone, without BSA/FBS, read-out: IC50 MCF-7 Human breast cell cancer cells) was 3.4 µM and the “Cell survival rate (%) MCF-7” value ([4]; breast cancer, TGTA 50 μM) was 80 ± 2%. For the same molecule, the IC50 ([4]; containing 40 mg/mL BSA, 200 μM of added compound, read-out: IC50 MCF-7 Human breast cell cancer cells) was 39.7 µM, the IC50 ([4]; under the normal physiological condition, auranofin alone, read-out: IC50 value, proliferation of MCF-7 human breast cell cancer cells) was over 30 µM and the IC50 ([4]; with 10% FBS, mercapto compound added 1 h after auranofin, MTT after 24 h, read-out: IC50 MCF-7 Human breast cell cancer cells) was 5.7 µM. For the same molecule, the IC50 [5] was 33.2 µM, the “Cell survival rate (%) PC9” value [6] was 93 ± 3% and the “Cell survival rate (%) PCGR” value (PCGR lung cancer cells) was 37 ± 4%. The “Cell survival rate (%) Hela” value [7] was 46 ± 7%, the “Cell survival rate (%) MGC803” value [8] was 79 ± 3% and the “Activity of TrxR” value (TrxR; 0.5 μM auranofin alone, with 30% FBS) was 63.6%. For the same molecule, the “Activity of TrxR” value (TrxR; 0.5 μM auranofin alone, with 30% FBS, listed as Positive control) was 63.6%, the “Activity of TrxR” value (TrxR; 0.5 μM auranofin alone, without FBS, relative to negative control 100%) was 15.9% and the “Activity of TrxR” value (TrxR; 0.5 μM auranofin alone, without FBS, relative to negative control 100%, listed as Positive control) was 15.9%. For the same molecule, the uptake of gold (HepG2 cells) was 728 mg/g protein, the growth of tumors [9] was “not effectively inhibited” and the “life span of mice” value [10] was “effectively prolong the life span”. For the same molecule, the “life span of mice and growth of tumors” value (solid tumor models) was “could neither prolong the life span of mice nor inhibit the growth of tumors”, the “Cell survival rate (%) HCT116” value ([1]; colon cancer, TGTA 50 μM) was 75 ± 5% and the “Cell survival rate after addition … (%)” value [1] was 75 ± 5%. It also gave an IC50 ([1]; read-out: IC50 HCT116 Human colon cancer cells, auranofin alone, without BSA/FBS) of 1 µM, an IC50 ([1]; read-out: IC50 HCT116 Human colon cancer cells, with 10% FBS, mercapto compound added 1 h after auranofin, MTT after 24 h) of 3.4 µM and an IC50 ([1]; read-out: IC50 HCTI16 Human colon cancer cells, containing 40 mg/mL BSA, 200 μM of added compound) of 30 µM. It also gave an IC50 ([1]; read-out: IC50 value, proliferation of HCT116 human colon cancer cells, under the normal physiological condition, auranofin alone) of over 30 µM.
In the case of `CCN(CC)C(=S)[S-].[Na+]` [DEDT, Sodium diethyldithiocarbamate], the “Activity of TrxR” value (TrxR; mercapto compound alone 200 μM, 30% FBS) is reported as 88.6%, the “Cell survival rate (%)” value [1] is reported as 78 ± 10% and the “Cell survival rate after addition … (%)” value [1] is reported as 0.9 ± 1.6%.
In the case of `N[C@@H](CCC(=O)N[C@@H](CS)C(=O)NCC(=O)O)C(=O)O` [Glutathione (GSH), Glutathione], the “Cell survival rate (%)” value [1] is reported as 116 ± 6% and the “Cell survival rate after addition … (%)” value [1] is reported as 81 ± 7%.
With `Cn1cc[nH]c1=S` [Methimazole] the “Cell survival rate (%)” value [1] was 98 ± 9% and the “Cell survival rate after addition … (%)” value [1] was 87 ± 5%.
For `CC(=O)N[C@@H](CS)C(=O)O` [N-acetylcysteine (NAC), N-acetylcysteine], the “Cell survival rate (%)” value [1] was 100 ± 6% and the “Cell survival rate after addition … (%)” value [1] was 77 ± 17%.
